Where “and” joins values, the source holds several entries; their conditions need not be identical. Equal entries are not always repeated.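 Assay format: 96-well plates, 48-hour exposure. GI50 is the concentration that inhibits growth by half. TGI: concentration producing complete growth inhibition.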
What was measured:
Assay in all cases: NCI anticancer screen, dose series, 48 h
[1] = test system: HCC-2998 colon
[2] = test system: HOP-62 NSCLC
[3] = test system: HT29 colon
[4] = test system: M19-MEL melanoma
[5] = test system: NCI-H226 lung
[6] = test system: NCI-H460 lung
[7] = test system: SNB-78 CNS
[8] = test system: RXF 393 renal
[9] = test system: MCF7 breast
[10] = test system: MDA-MB-435
[11] = test system: DMS 114 small cell lung

Compound	TGI [1]	TGI [2]	TGI [3]	TGI [4]	TGI [5]	TGI [6]	TGI [7]	GI50 [2]	GI50 [3]	GI50 [4]	GI50 [6]	TGI [8]	GI50 [9]	TGI [9]	GI50 [10]	TGI [10]	GI50 [8]	TGI [11]	GI50 [1]	GI50 [5]
Cc1cc(O)c(C(=O)CC2(O)C(=O)Nc3c(Cl)cc(Cl)cc32)c(=O)o1 (stereo not given)	> 100 µM	> 100 µM	> 100 µM	> 100 µM	> 100 µM	> 100 µM	> 100 µM	–	–	–	–	–	–	–	–	–	–	–	–	–
CC(=O)OCC1OC(OC2CC3C(C)(C)C(OC(C)=O)CC[C@]3(C)C3CCC45CC4(CC[C@H]5C(C)CC(O)[C@@H](O)C(C)(C)O)[C@]23C)C(O)C(O)C1O (stereo not given in full)	12.9 µM	11.8 µM and 25.9 µM	14.3 µM and 10.6 µM	13.7 µM and 12.7 µM	13.3 µM	16.2 µM and 19.5 µM	–	12.1 µM	3.37 µM	3.18 µM	6.88 µM	13.9 µM	–	–	–	–	–	–	–	–
COc1ccc(/C=C\c2cc(OC)c(OC)c(OC)c2)cc1OC(=O)C(N)CCC(=O)O (stereo not given)	–	> 100 µM	> 37.9 µM and 46.2 µM	67.3 µM	0.0415 µM	–	46.4 µM	–	–	–	0.00112 µM	–	0.00503 µM	> 100 µM	0.169 nM and 0.049 nM	0.000799 µM and 0.000118 µM	0.0467 nM	–	–	–
NCCCN(CCCN)CCCNCc1c2ccccc2c(CNCCCN(CCCN)CCCN)c2ccccc12	20.1 µM	32.9 µM	37.5 µM	20.4 µM	> 100 µM	29.2 µM	79.9 µM	–	–	–	–	45.2 µM	–	–	–	–	–	–	–	–
COc1ccc(C(=O)C(c2ccc(OC)cc2)C2(O)C(=O)Nc3c(C)cc(Cl)cc32)cc1 (stereo not given)	> 100 µM	> 100 µM	> 100 µM	44.2 µM	> 100 µM	> 100 µM	> 100 µM	–	–	–	–	> 100 µM	–	–	–	–	–	–	–	–
CN(C)CC(/C(Cc1ccccc1)=N\NC(=O)c1ccncc1)c1ccccc1 (stereo not given)	> 100 µM	> 100 µM	> 100 µM	> 100 µM	> 100 µM	–	–	–	–	–	–	> 100 µM	–	–	–	–	–	81.8 µM	–	–
CC1Cc2c(N)nc(NN)nc2NC1=O (stereo not given)	–	> 100 µM	> 100 µM	> 100 µM	> 100 µM	> 100 µM	–	–	–	–	–	> 100 µM	–	–	–	–	–	> 100 µM	–	–
CCOC(=O)/C(=C\c1ccc(OCc2ccccc2)c(OC)c1)C(=O)c1ccccc1	> 100 µM	33.6 µM	–	50 µM	42.5 µM	–	76.8 µM	–	–	–	–	–	–	–	–	–	–	41.4 µM	–	–
COC(=O)/C=C(C)/C=C/c1cc(C(C)=O)c(C)o1	> 100 µM	> 100 µM	> 100 µM	–	–	> 100 µM	> 100 µM	–	–	–	–	–	–	–	–	–	–	> 100 µM	–	–
CC1(CO)OC1COCc1ccccc1 (stereo not given)	–	> 100 µM	> 100 µM	–	> 100 µM	> 100 µM	> 100 µM	–	–	–	–	> 100 µM	–	–	–	–	–	> 100 µM	–	–
c1ccc2[nH]c(SSc3nc4ncncc4[nH]3)nc2c1	> 100 µM	> 100 µM	> 100 µM	–	> 100 µM	> 100 µM	–	0.427 µM	2.58 µM	–	4.48 µM	> 100 µM	0.295 µM	–	446 nM	> 100 µM	32100 nM	–	1.9 µM	9.52 µM
C=CC[C@H]1C[C@@]2(C)OC[C@H](C(C)C)N2C1=O	–	> 100 µM	> 100 µM	> 100 µM	–	> 100 µM	> 100 µM	–	–	–	–	> 100 µM	–	–	–	–	–	–	–	–
N/N=C(\CC1OC(=O)c2ccccc21)c1ccco1 (stereo not given)	> 100 µM	–	> 100 µM	> 100 µM	> 100 µM	> 100 µM	–	–	–	–	–	> 100 µM	–	–	–	–	–	> 100 µM	–	–
COc1ccc(C2S/C(=C\c3cc(OC)c(OC)c(OC)c3)C(=O)N2NC(=O)Cc2ccccc2)cc1 (stereo not given)	–	> 100 µM	> 100 µM	> 100 µM	> 100 µM	> 100 µM	–	–	–	–	–	> 100 µM	–	–	–	–	–	> 100 µM	–	–
CCN1C(=O)N(CC)C2C1NN=c1s/c(=C3\C(=O)N(CC(C)C)c4ccccc43)c(=O)n12 (stereo not given)	> 100 µM	34.8 µM	> 100 µM	–	> 100 µM	> 100 µM	–	0.797 µM	0.396 µM	–	0.471 µM	2.45 µM	0.454 µM	> 100 µM	224 nM	0.521 µM	335 nM	–	2.38 µM	2.39 µM
CCC1=C[C@@H]2CN(C1)Cc1c([nH]c3ccccc13)[C@@](C(=O)OC)(c1cc3c(cc1OC)N(C=O)[C@H]1[C@@](O)(C(=O)OC)[C@H](OC(C)=O)[C@]4(CC)[C@@H]5C[C@@H]5CN5CC[C@]31[C@@H]54)C2	> 6.25 µM	> 6.25 µM	> 6.25 µM	–	> 6.25 µM	> 6.25 µM	–	0.00158 µM	< 0.000625 µM	–	0.00135 µM	> 6.25 µM	< 0.000625 µM	> 6.25 µM	< 0.625 nM	< 0.000625 µM	1.55 nM	–	0.00144 µM	–
COc1ccc(C2=NN(C(=O)COc3ccc(Cl)cc3)C(O)(c3cc(F)c(Cl)cc3Cl)C2)cc1OC (stereo not given)	13.3 µM	30.8 µM	3.24 µM	–	8.24 µM	24.3 µM	–	13.9 µM	1.51 µM	–	8.87 µM	1.48 µM	2.18 µM	8.21 µM	1620 nM	3.48 µM	474 nM	–	3.91 µM	2.84 µM
CCOc1cc2c(cnc3c4cc(OC)c(OC)cc4ccc23)cc1OC	> 100 µM	> 100 µM	> 100 µM	> 100 µM	–	> 100 µM	–	–	–	–	–	–	–	–	–	–	–	> 100 µM	–	–
COc1cc(NC(=O)c2cc(OC)c3ccn(C)c3c2)cc2c1C[C@]1(C)CC[C@@H](O)C(C)(C)[C@H]1O2	> 100 µM	> 100 µM	> 100 µM	–	> 100 µM	> 100 µM	–	8.78 µM	7.24 µM	–	5.24 µM	4.28 µM	4.68 µM	65.9 µM	9080 nM	43.6 µM	759 nM	–	13.4 µM	26.5 µM
Nc1ccc(C(=O)c2ccc(N)c(Br)c2)cc1Br	4.65 µM	22.7 µM	1.18 µM	–	> 61.5 µM	5.76 µM	–	0.538 µM	0.335 µM	–	0.346 µM	0.882 µM	0.428 µM	> 100 µM	207 nM	0.49 µM	279 nM	–	0.381 µM	4.27 µM
CCCCCNC(=O)[C@@H]1CCCN2C(=O)CC[C@H](NC(=O)[C@H](Cc3ccc(OP(=O)(O)O)cc3)NC(C)=O)C(=O)N12	> 25 µM	> 25 µM	> 25 µM	–	> 25 µM	> 25 µM	–	> 25 µM	> 25 µM	–	> 25 µM	> 25 µM	> 25 µM	> 25 µM	> 25000 nM	> 25 µM	> 25000 nM	–	> 25 µM	> 25 µM
CC1(C)COCN1COC1CCCCC1	> 100 µM	> 100 µM	> 100 µM	–	> 100 µM	> 100 µM	–	–	–	–	–	> 100 µM	–	> 100 µM	–	> 100 µM	–	–	–	–
CCCCCCCCCNCCCCCCCCC	3.24 µM	3.38 µM	2.88 µM	–	3.61 µM	3.65 µM	–	1.93 µM	1.27 µM	–	1.93 µM	3.25 µM	1.7 µM	3.3 µM	1850 nM	3.58 µM	1810 nM	–	1.69 µM	1.83 µM
CCOC(=O)CCCn1c(SC)nc2cc(-c3ccco3)[nH]c2c1=O	> 100 µM	> 100 µM	> 100 µM	–	> 100 µM	> 100 µM	–	37 µM	> 100 µM	–	> 100 µM	30.6 µM	> 100 µM	> 100 µM	> 100000 nM	> 100 µM	12000 nM	–	> 100 µM	> 100 µM
O=C(NC1CC1)c1ccc(-c2nc3ccc4[nH]ncc4c3c3c2CCCC3)cc1	10.1 µM	24.8 µM	> 50 µM	–	47.6 µM	12.2 µM	–	1.25 µM	2.05 µM	–	2.05 µM	4.03 µM	1.44 µM	9.57 µM	1380 nM	5.02 µM	967 nM	–	3.27 µM	3.41 µM
Cn1ccc2c(NCCN)c3c(c(NCCN)c21)C(=O)c1ccccc1C3=O	3.99 µM	2.72 µM	> 44.8 µM	–	5.8 µM	2.24 µM	–	0.35 µM	7.77 µM	–	0.448 µM	3.67 µM	0.442 µM	7.22 µM	1540 nM	5.59 µM	1500 nM	–	1.64 µM	1.3 µM
O=[N+]([O-])c1ccc(Sc2c3ccccc3nc3ccccc23)cc1	> 100 µM	> 100 µM	> 100 µM	> 100 µM	> 100 µM	> 100 µM	> 100 µM	–	–	–	–	> 100 µM	–	–	–	–	–	–	–	–
C=C1C(=O)O[C@@H]2C1C[C@@H](O)/C(C)=C/C/C=C(\C)CCC[C@H](C)[C@H]2OC(C)=O (stereo not given in full)	> 100 µM	> 100 µM	> 100 µM	–	44.3 µM	> 100 µM	–	45.4 µM	40 µM	–	> 100 µM	50.2 µM	20 µM	46.2 µM	24400 nM	58 µM	19300 nM	–	31.7 µM	23.2 µM

From PubChem BioAssay (NCI)
